Source: patent US20160311795A1, “PYRIMIDINE DIAMINE DERIVATIVES AS INHIBITORS OF CYTOSOLIC HSP90” (CALASIA PHARMACEUTICALS, INC., priority 2012, published 2016)

How the values were obtained:
Caspase-3 in LnCaP cells = assay: Caspase 3/7 induction; type: cell-based, human; details: 10 μM concentration
Experimental: Akt1 levels in the cell lysates were measured using kits from R&D Systems used according to the manufacturer's recommendations. Cell lysates were assayed at a 1:24 dilution for the Akt1 ELISA. The Akt1 concentrations in the cell lysates were extrapolated from the standard curve and corrected for lysate protein concentration. Akt1 levels were determined using a micro-titer plate reader (Model #Synergy HT; BioTek Inc., Winooski, Vt.). LnCaP cells were cultured in culture medium and passaged after lifting using 0.25% trypsin/EDTA. LnCaP cells were seeded into a 96 well tissue culture plate at 1.3×10^4 cells per well in a volume of 100 uL of culture medium. […] Caspase 3/7 activity was measured using a Homogeneous Caspase 3/7 Assay Kit used according to the manufacturer's recommendations. In detail, an equal volume of Caspase 3/7 Assay Kit reagent was added to the wells and fluorescence readings (Ex/Em 485/528) were taken after 3, 6, and 23 h at ambient temperature using a micro-titer plate reader. […] Fluorescence intensities of the dilutions were measured to obtain a standard curve. […] Cell viability was measured with the ATPlite Kit used according to the manufacturer's recommendation. […] Cultures were mixed at 1,000 rpm for 2 min in the dark and luminescence quantification was accomplished using a micro-titer plate reader (POLARstar Omega micro-titer plate reader; BMG Labtech).

[1] = Rat CNS exposure (plasma and CNS tissue concentration, LC-MS/MS); type: in vivo; details: ex-vivo CNS tissue
Experimental: Test subjects (Sprague-Dawley rats) were housed in sterile vivarium with controlled temperature, humidity and 12-hour light-dark cycle (7:00 lights-on and 19:00 lights-off). Following procurement, rats were acclimated to the vivarium facility for 7 days prior to study day-1 with ad libitum access to both diet and water. Bedding was changed twice weekly. […] On study day-1 rats were administered vehicle or Hsp90 inhibitor formulation. Following administrations of test article formulation, blood and CNS tissue was collected at 6.5 h post-dosed by a necropsy procedure. In detail, CNS tissue was isolated from the Vehicle and dose groups, divided into 2 mid-sagittal sections, placed in tarred 1 mL micro-centrifuge tubes, weighed and immediately frozen on dry ice. Blood was isolated by a cardiac puncture procedure from the Vehicle and Hsp90 inhibitor dose groups. From these samples, plasma was isolated in plasma separator tubes containing ethylenediaminetetraacetic acid as the anticoagulant. HSP90 inhibitor concentrations in plasma and CNS tissue were determined using LC-MS/MS based methods following a 60% acetonitrile extraction.

Akt1 = assay: Rat CNS biomarker assay, Akt1 ELISA in CNS lysates; type: in vivo; details: intraperitoneally, versus vehicle
HepG2 = assay: Cell viability / efficacy in liver cancer cells, ADP-GLO; type: cell-based
Experimental: The effect of SBI-0640725 on cell viability was determined by measuring cellular dehydrogenase activity (U251MG and MBA-MD-231 cells) or by measuring ADP levels (HepG2) after treating cells for 72 hours with increasing concentrations of SBI-0640725. To measure dehydrogenase activity, CCK-8 kit reagent (Dojindo) was added to the wells and incubated for 2 hours, after which absorbance was measured at 450 nm using a Synergy HT micro-titer plate reader (Biotek). To measure ADP levels, ADP-GLO reagent (Life Technologies) was added to the wells, and luminescence was measured after a 30 minute incubation using a POLARstar Omega micro-titer plate reader (BMG).
The table below summarizes efficacy of SBI-0640725 in various cancer cell lines, including U251MG, MDA-MB-231, and HepG2, using ADP-GLO assay described above. As used herein “efficacy” (EC50) is the concentration of a compound that produces half-maximal response in a cellular assay.

[2] = test system: Caspase 3/7 activity in HepG2 cells; assay: Cellular Caspase-3/7 luminescence assay; type: cell-based; details: HepG2, 72 hours
Experimental: (§1) Further, the effect of SBI-0640725 on cellular caspase levels was also quantitated in U251MG, MBA-MD-231 and HepG2 cells. Each cell type was treated with increasing concentrations of SBI-0640725 for 72 hours. Quantification of total cellular Caspase-3 and 7 activity was accomplished using a Caspase-3/7 luminescence assay kit (Promega) according to the manufacturer's recommendations, and analyzed with a POLARstar Omega micro-titer plate reader (BMG). […] Caspase activity is a marker for apoptotic cell death.

[3] = test system: Caspase 3/7 activity in MBA-MD-231 cells; assay: Cellular Caspase-3/7 luminescence assay; type: cell-based; details: MBA-MD-231, 72 hours
Experimental: as §1

EGFR in U251MG cells = assay: Hsp90 client protein stability, EGFR; type: cell-based, human; details: 48 hours, increasing concentrations
Hsp70 in U251 MG cells = assay: Hsp70 induction, ELISA; type: cell-based, human; details: U251MG, 48 hours
Experimental: Experiments were performed using U251 MG and MBA-MD-231 cells to also measure induction of Hsp 70 in response to treatment with SBI-0640725. […] For Hsp70 induction measurements, cells were treated with increasing concentrations of SBI-0640725 for 48 hours, and Hsp70 levels were measured in cell lysates using ELISA.

U251MG cells = assay: Mitochondrial integrity in cells, TMRE fluorescence; type: cell-based, human; details: 48 hours
Experimental: (§2) Additional experiments were performed to determine the effect of SBI-0640725 on mitochondrial integrity. U251MG cells were treated with tetramethylrhodamine ethyl ester (TMRE), and fluorescence was visualized using fluorescence confocal microscopy (FIG. 16 panel A), or quantitated using a fluorimeter (FIG. 16 panel B) after cells had been treated with increasing concentrations of SBI-0640725 for 48 hours. […] In experiments using isolated mitochondria, mitochondrial membrane potential was determined as a measure of mitochondrial integrity. TMRE-loaded mitochondria isolated from U251MG cells were treated with either 10 μM (left bar of the pair in FIG. 17) or 2 μM (right bar of the pair in FIG. 17) SBI-0640725 while continually monitoring changes in fluorescence intensity at 30° C.

[4] = test system: mitochondria isolated from U251MG cells; assay: Mitochondrial membrane potential in isolated TMRE-loaded mitochondria; type: cell-based, human; details: 10 μM or 2 μM, 30° C.
Experimental: as §2

| SMILES | induction of Caspase-3 (Caspase-3 in LnCaP cells) | partitioning CNS (brain) versus plasma [1] | partitioning CNS (brain) versus plasma ([1]; listed as SB-0639353) | Akt1 level in CNS tissues (Akt1) | cell viability (HepG2; HepG2, 72 hours, ADP levels (ADP-GLO)) | EC50 (HepG2; Homo sapiens, Liver Cancer, HepG2, ADP-GLO) [nM] | Caspase 3/7 activity [2] | Caspase 3/7 activity [3] | level of the client protein EGFR (EGFR in U251MG cells) | induction of Hsp70 (Hsp70 in U251 MG cells) | mitochondrial integrity (retention of de-esterified TMRE) (U251MG cells) | mitochondrial membrane potential [4] |
| --- | --- | --- | --- | --- | --- | --- | --- | --- | --- | --- | --- | --- |
| COc1c(C)cnc(CN(CCc2ccccc2)c2cc(Cl)nc(N)n2)c1C [SBI-0639353, 6-Chloro-N4-((4-methoxy-3,5-dimethylpyridin-2-yl)methyl)-N4-phenethylpyrimidine-2,4-diamine] | induction of Caspase-3 | preferential partitioning into the brain compared to plasma | preferential partitioning | a decrease in its levels compared to vehicle treated rats |  |  |  |  |  |  |  |  |
| COc1c(C)cnc(CN(CCc2ccc(F)cc2)c2cc(Cl)nc(N)n2)c1C [SBI-0640725] |  |  |  |  | reduction in cell viability | 1300 | increase in Caspase 3/7 activity | increase in Caspase 3/7 activity | observed to decrease | caused induction of Hsp70 | decrease proportionately with increasing concentrations | mitochondrial membrane potential decreased |
